# Where two headings read alike, the source gives them in different places. Marks after values point to notes of the source that are not given here.
# Assays:
# [1] = tested on: ORFeus-Hs (synthetic human L1) retrotransposition in HeLa cells; experiment: Cell-based L1 retrotransposition assay, ORFeus-Hs
# Experimental: (§1) The cell-based retrotransposition assay was conducted as described. HeLa cells (a gift from Dr. John Moran, University of Michigan) were seeded in 6-well dishes in DMEM (2×10^5 cells/well). The next day cells were transfected with Fugene 6 according to the manufacturer's manual. Each transfection consisted of 96 μl Opti-Mem, 1 μg pWA195 DNA and 3 μl Fugene 6. Sixteen hours after transfection, the cells were trypsinized and transferred to a 6 cm plate in DMEM with 2.5 μg/ml puromycin and the RT inhibitors. Three days after puromycin selection, dead cells were removed and puromycin resistant cells were trypsinized and counted with a hemocytometer. The puromycin resistant cells were plated on a 10 cm plate (1×10^4 cells/plate) in 10 ml DMEM with 500 μg/ml G418. The RT inhibitors were added to the same concentration as in the puromycin selection. […] Two weeks later, G418 resistant cells were fixed to the plate and stained with 0.1% crystal violet. The number of G418 resistant colonies was counted to calculate retrotransposition frequency. Six independent assays were done for each RT inhibitor.
# [2] = biological target: T1, human L1 reverse transcriptase (MBP-RT fusion) (Homo sapiens, UniProt O00370); experiment: In vitro (cell-free) RT assay and kinetic analysis with recombinant L1 RT; assay type: biochemical; conditions: for IC50: calculated as IC50 = Ki(1+ S/Km), read-out: IC50 against L1 RT; for Ki: competitive with respect to dTTP (AZTTP, d4TTP) or dCTP (ddCTP, 3TCTP), Lineweaver-Burk, read-out: Ki against L1 RT; for high concentration at which L1 RT was inhibited: inhibited only at this high concentration; for inhibition of L1 RT activity: concentrations as high as 500 μM
# T1 construct: Human L1 ORF2 amino acid 238-1061 was inserted behind MBP gene in frame; made in house; host or cells: E. coli BL21
# Experimental: (§2) The RT assays for HIV-1 and L1 RT were performed in a 20 μl reaction mixtures containing 50 mM Tris-Cl (pH 8.0), 50 mM KCl, 5 mM MgCl2, 10 mM DDT, 0.01 U template/primer, 1 μl [α-^32P] dTTP or [α-^32P] dCTP (final concentration 0.17 μM, 3000 Ci/mmol, 10 mCi/ml) at 37°C for 30 min. Then the mixture was spotted on DE81 paper and washed three times with 2×SSC buffer for a total time of 30 min. The DE81 paper was dried and counted by scintillation counter Beckman LS6000SC. RT assay for Ty1 RT was done under the same buffer condition except that 20 mM MgCl2 was used and the reaction mixture was incubated at room temperature. In each reaction the amounts of L1, HIV-1 and Ty1 RTs with the same specific activity were added. To test the inhibition of the RT inhibitors, 1 μl inhibitor was included in the mixture to obtain the desired concentration. […] All assays were done at least in triplicate.
# The kinetic analysis was performed under the same conditions described above but with various concentrations of substrates and inhibitors as indicated in the text. Poly (rA)-oligo (dT)12-18 and [α-^32P] dTTP were used to analyze AZTTP and d4TTP. Poly (rI)-oligo (dC)12-18 and [α-^32P] dCTP were used to assay ddCTP and 3TCTP.
# Ty1 RT [3] = biological target: T2, Ty1 RT (Saccharomyces cerevisiae, UniProt Q99231); experiment: In vitro RT assay with recombinant Ty1 RT; assay type: biochemical; conditions: for increase of Ty1 RT activity: at low concentrations; for high concentration at which Ty1 RT was inhibited: inhibited only at this high concentration
# T2 construct: recombinant Ty1 RT, which required C-terminal residues of integrase for its RT activity; made in house; host or cells: E. coli BL21 (co-transformed with chaperone plasmid pG-Tf2)
# T2 sequence (Q99231 1103-1755): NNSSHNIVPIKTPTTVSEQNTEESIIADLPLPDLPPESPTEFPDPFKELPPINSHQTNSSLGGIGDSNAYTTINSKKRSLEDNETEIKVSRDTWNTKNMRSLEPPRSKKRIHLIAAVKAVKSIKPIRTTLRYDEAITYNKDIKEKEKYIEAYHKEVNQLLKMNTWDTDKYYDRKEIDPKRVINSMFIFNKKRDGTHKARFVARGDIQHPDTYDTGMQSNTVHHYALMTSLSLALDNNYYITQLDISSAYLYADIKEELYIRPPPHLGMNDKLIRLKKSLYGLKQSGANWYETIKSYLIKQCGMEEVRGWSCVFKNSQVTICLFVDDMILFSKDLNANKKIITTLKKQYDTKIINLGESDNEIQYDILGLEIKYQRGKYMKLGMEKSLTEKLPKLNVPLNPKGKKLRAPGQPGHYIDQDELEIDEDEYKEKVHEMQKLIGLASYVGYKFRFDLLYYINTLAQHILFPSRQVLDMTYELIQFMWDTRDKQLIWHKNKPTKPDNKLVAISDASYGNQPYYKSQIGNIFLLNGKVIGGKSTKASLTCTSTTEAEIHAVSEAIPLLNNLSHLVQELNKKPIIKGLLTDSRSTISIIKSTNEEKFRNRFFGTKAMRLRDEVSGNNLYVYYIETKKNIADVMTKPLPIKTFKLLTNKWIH
# Experimental: as §2
# [4] = tested on: ORFeus-Mm (synthetic mouse L1) retrotransposition; experiment: Cell-based L1 retrotransposition assay, ORFeus-Mm; conditions: control = 1.0, normalized to cell viability
# Experimental: as §1
# HIV-1 = tested on: HIV-1; parameters: method as in PMID 2413459; conditions: cited from earlier work
# HIV-1 RT = conditions: read-out: IC50 against HIV-1 RT; previously reported; cited from earlier work
# HeLa cells = experiment: Cell cytotoxicity of RT inhibitors; assay type: cell-based, human
# Experimental: Untransfected Hela cells were plated on 10 cm plate (500 cells/plate) with and without RT inhibitors. Ten days later, cells were fixed to the plate and stained with 0.1% crystal violet. The number of colonies was counted to calculate colony formation ability. Colony formation ability of control assay without inhibitors was considered as 1.0 and colony formation ability in the presence of inhibitors was indicated as relative efficiency with respect to the control.
# [5] = tested on: AMV RT, MLV RT, human DNA polymerases α, β, γ and Klenow fragment; conditions: cited from earlier work
# [6] = tested on: HIV-1 mutants (substitutions at positions 103, 106, 181, 188 and 190); parameters: method as in PMID 17370068; conditions: cited from earlier work
# Ty1 RT [7] = biological target: T2, Ty1 RT; parameters: method as in PMID 10816427, PMID 11577982; conditions: ratio of ddGTP/GTP 0.2; cited from earlier work
# [8] = Homo sapiens, HeLa, 5 μM, control = 1.0, normalized to cell viability, read-out: Relative retrotransposition efficiency
# [9] = Homo sapiens, HeLa, 50 μM, control = 1.0, normalized to cell viability, read-out: Relative retrotransposition efficiency
# [10] = 50 μM, control = 1.0, normalized to cell viability
structure (smiles),measurement,setting,value
"Nc1ccn([C@H]2CS[C@@H](CO)O2)c(=O)n1 [3TC, 2',3'-dideoxy-3'-thiacytidine]",activity at 5 µM,[1]; [8],8 ± 3%
same,activity at 50 µM,[1]; [9],3 ± 3%
"Nc1ccn([C@@H]2CS[C@H](COP(=O)(O)OP(=O)(O)OP(=O)(O)O)O2)c(=O)n1 [3TCTP, 2',3'-dideoxy-3'-thiacytidine triphosphate]",IC50,[2],18.6 nM
same,Ki,[2],12.9 ± 0.16 nM
same,increase of Ty1 RT activity,Ty1 RT [3],up to 40%
"Nc1nc(NC2CC2)c2ncn(C3C=C[C@H](CO)C3)c2n1 (stereo partly drawn) [ABC, [(1R)-4-[2-amino-6-(cyclopropylamino)purin-9-yl]-1-cyclopent-2-enyl]methanol]",activity at 5 µM,[1]; [8],74 ± 6%
same,activity at 50 µM,[1]; [9],20 ± 4%
same,Relative retrotransposition efficiency,[4]; 5 μM,0.80 ± 0.05
same,Relative retrotransposition efficiency,[4]; 50 μM,0.15 ± 0.03
"Cc1cn([C@H]2C[C@H](N=[N+]=[N-])[C@@H](CO)O2)c(=O)[nH]c1=O [AZT, azidothymidine]",activity at 5 µM,[1]; [8],62 ± 6%
same,activity at 50 µM,[1]; [9],23 ± 4%
same,concentration completely inhibiting HIV-1 production,HIV-1,1 to 3 µM
same,Relative retrotransposition efficiency,[4]; 5 μM,0.75 ± 0.08
same,Relative retrotransposition efficiency,[4]; 50 μM,0.16 ± 0.02
"Cc1cn([C@H]2C[C@H](N=[N+]=[N-])[C@@H](CO[P@](=O)(O)O[P@](=O)(O)OP(=O)(O)O)O2)c(=O)[nH]c1=O [AZTTP, azidothymidine triphosphate]",IC50,[2],19.8 nM
same,Ki,[2],16.4 ± 4.21 nM
same,increase of Ty1 RT activity,Ty1 RT [3],up to 40%
"CC(C)Nc1cccnc1N1CCN(C(=O)c2cc3cc(NS(C)(=O)=O)ccc3[nH]2)CC1 [DLV, delavirdine]",activity at 5 µM,[1]; [8],63%
same,activity at 50 µM,[1]; [9],28 ± 3%
same,inhibition at 50 µM,"[1]; Homo sapiens, HeLa, 50 μM, read-out: inhibition of L1 retrotransposition efficiency",~72%
same,high concentration at which L1 RT was inhibited,[2],50 µM
same,IC50,HIV-1 RT,260 nM
same,high concentration at which Ty1 RT was inhibited,Ty1 RT [3],50 µM
same,concentration causing massive HeLa cell death,HeLa cells,100 µM
same,Relative retrotransposition efficiency,[4]; 5 μM,0.60 ± 0.05
same,Relative retrotransposition efficiency,[4]; 50 μM,0.02 ± 0.01
"O=C1Nc2ccc(Cl)cc2[C@@](C#CC2CC2)(C(F)(F)F)O1 [EFV, efavirenz]",activity at 5 µM,[1]; [8],28 ± 2%
same,inhibition at 5 µM,"[1]; Homo sapiens, HeLa, 5 μM, read-out: inhibition of L1 retrotransposition efficiency",~72%
same,high concentration at which L1 RT was inhibited,[2],500 µM
same,activity against a variety of polymerases,[5],inactive
same,high concentration at which Ty1 RT was inhibited,Ty1 RT [3],500 µM
same,concentration causing massive HeLa cell death,HeLa cells,50 µM
"Nc1nc(=O)n(C2CSC(CO)O2)cc1F (stereo not shown) [FTC, 4-amino-5-fluoro-1-[2-(hydroxymethyl)-1,3-oxathiolan-5-yl]-pyrimidin-2-one]",activity at 5 µM,[1]; [8],25 ± 1%
same,activity at 50 µM,[1]; [9],12 ± 4%
same,Relative retrotransposition efficiency,[4]; 5 μM,0.34 ± 0.01
same,Relative retrotransposition efficiency,[4]; 50 μM,0.26 ± 0.04
"Cc1ccnc2c1NC(=O)c1cccnc1N2C1CC1 [NVP, nevirapine]",activity at 5 µM,[1]; [8],108 ± 13%
same,activity at 50 µM,[1]; [9],89 ± 3%
same,activity at 200 µM,"[1]; Homo sapiens, HeLa, 200 μM, control = 1.0, normalized to cell viability, read-out: Relative retrotransposition efficiency",89%
same,activity at 400 µM,"[1]; Homo sapiens, HeLa, 400 μM, control = 1.0, normalized to cell viability, read-out: Relative retrotransposition efficiency",87 ± 3%
same,decrease of L1 transposition frequency,[1]; at all tested concentrations,~ 10%
same,reduction of susceptibility in HIV-1 mutants,[6],more than 50 fold
same,inhibition of L1 RT activity,[2],no inhibition
same,inhibition of L1 RT activity,[2]; listed as nevirapine,no effect
same,activity against a variety of polymerases,[5],inactive
same,inhibition of Ty1 RT activity,Ty1 RT [3]; concentrations as high as 500 μM,no inhibition
"Cc1cn([C@H]2C=C[C@@H](CO)O2)c(=O)[nH]c1=O [d4T, 2'-3'-didehydro-2'-3'-dideoxythymidine]",Relative retrotransposition efficiency,"[1]; 5 μM, control = 1.0, normalized to cell viability",0.50 ± 0.05
same,Relative retrotransposition efficiency,[1]; [10],0.05 ± 0.04
same,Relative retrotransposition efficiency,[4]; 5 μM,0.28 ± 0.05
same,Relative retrotransposition efficiency,[4]; 50 μM,0.01 ± 0.02
"Cc1cn([C@H]2C=C[C@@H](COP(=O)(O)OP(=O)(O)OP(=O)(O)O)O2)c(=O)[nH]c1=O [d4TTP, 2'-3'-didehydro-2'-3'-dideoxythymidine triphosphate]",IC50,[2],0.88 nM
same,Ki,[2],0.73 ± 0.22 nM
Nc1ccn([C@H]2C[C@H](O)[C@@H](COP(=O)(O)OP(=O)(O)OP(=O)(O)O)O2)c(=O)n1 [dCTP],Km,"[2]; poly (rI)-oligo (dC)12-18, no inhibitor, read-out: Km value for dCTP substrate",0.38 µM
Cc1cn([C@H]2C[C@H](O)[C@@H](COP(=O)(O)OP(=O)(O)OP(=O)(O)O)O2)c(=O)[nH]c1=O [dTTP],Km,"[2]; poly (rA)-oligo (dT)12-18, no inhibitor, read-out: Km value for dTTP",0.83 µM
"Nc1ccn([C@H]2CC[C@@H](CO)O2)c(=O)n1 [ddC, 2'-3'-dideoxycytidine]",Relative retrotransposition efficiency,[1]; [10],<0.005^c
same,Relative retrotransposition efficiency,[4]; 5 μM,<0.0025^c
same,Relative retrotransposition efficiency,[4]; 50 μM,<0.0025^c
"Nc1ccn([C@H]2CC[C@@H](COP(=O)(O)OP(=O)(O)OP(=O)(O)O)O2)c(=O)n1 [ddCTP, 2'-3'-dideoxycytidine triphosphate]",IC50,[2],1.04 nM
same,Ki,[2],0.72 ± 0.16 nM
same,increase of Ty1 RT activity,Ty1 RT [3],up to 40%
Nc1nc2c(ncn2[C@H]2CC[C@@H](COP(=O)(O)OP(=O)(O)OP(=O)(O)O)O2)c(=O)[nH]1 [ddGTP],decrease of Ty1 RT activity,Ty1 RT [7],90%
"O=c1[nH]cnc2c1ncn2[C@H]1CC[C@@H](CO)O1 [ddI, 2'-3'-dideoxyinosine]",Relative retrotransposition efficiency,[1]; [10],<0.005^c
same,Relative retrotransposition efficiency,[4]; 5 μM,<0.0025^c
same,Relative retrotransposition efficiency,[4]; 50 μM,<0.0025^c
